Entries after “also recorded” stand apart in the source; their conditions may differ. Like-named read-outs stand apart in the source and are kept apart here.
Tests used:
PARP-1 = biological target: T1, PARP-1 (Homo sapiens, UniProt P09874); experiment: PARP-1 enzyme inhibition assay (BPS Bioscience PARP Colorimetric Assay Kit); format: biochemical; settings: for inhibition at 0.05 µM: compound concentration 50 nM, three independent tests
T1 construct: purchased BPS Bioscience 80580
Experimental: All target compounds were evaluated for PARP-1 enzyme inhibition activity at the concentration of 50 nM determined by previous pre-experiments.
The ability of the compounds to inhibit PARP-1 enzyme activity was assessed using BPS Bioscience's PARP Colorimetric Assay Kit (BPS Bioscience, Catalog # 80580). PARP-1 is known to catalyse the NAD-dependent addition of poly(ADP-ribose) to histones. The PARP-1 assay kit comes in a convenient 96-well format, with purified PARP-1 enzyme, histone mixture, activated DNA, and PARP-1 assay buffer. The key to the PARP-1 Colorimetric Activity Assay is the biotinylated substrate. With this kit, only three simple steps are required for PARP-1 reactions. First, histone proteins are coated on a 96-well plate. Next, the PARP-1 biotinylated substrate is incubated with an assay buffer that contains the PARP-1 enzyme. Finally, the plate is treated with streptavidin-HRP followed by the addition of the colorimetric HRP substrate to produce colour that can then be measured using a UV/Vis spectrophotometer microplate reader. IC50 values were calculated using GraphPad Prism5 software.

[1] = test system: MDCK cells monolayer model; settings: dog, 3 h, 10 µM
[2] = test system: MX-1 (BRCA1 mutant tumour cells); experiment: MTT antiproliferation assay, MX-1 cells; format: cell-based; settings: Homo sapiens, MX1, breast cancer cell line, 48 h
Experimental: (§1) Due to their acceptable inhibition rates (more than 50%) at the concentration of 50 nM, compounds H34, H42, H48, H50, and H52 were selected to evaluate the proliferation inhibition activity on several cancer cells, including BRCA1 mutant tumour cells (MX-1) and BRCA1 wild type tumour cells (MCF7 and A549).
(§2) The MTT assay was performed to detect the sensitivity of cells to anticancer drugs in vitro. The human A549, MCF7, and U87 tumour cells, as well as human BRCA mutant tumour cells (MX-1), were tested in this study. The cell culture was carried out in accordance with routine operations or instructions. Briefly, 5,000 cells were seeded in each well of a 96-well plate. After cell attachment to the bottom of the well, different concentrations of tested compounds were added into designated wells. After 48 h of incubation, 20 µL of MTT solution (5 mg/mL) were added to each well for cell staining. After 4 h, the media were removed and 150 µL of DMSO were added to each well. Finally, the absorbance was determined at 570 nm using a multifunctional microplate reader (TECAN).

[3] = Brain/plasma pharmacokinetic study in vivo; settings: ICR mice; for concentration at 5 min / Kp at 5 min: 5 min after tail vein injection of 1.5 mg/kg
Experimental: Further, the brain permeability of representative compounds was evaluated in ICR mice. After tail vein injection of a 1.5 mg/kg dose, the concentrations of the compounds in the brain and plasma were measured after 5 min and 60 min of administration, and the brain/plasma (B/P) ratio was calculated. […] On the contrary, compounds H42 and H52 performed high B/P ratios, which were consistent with our initial expectations. Among them, the B/P ratio of H42 reached balance rapidly in vivo and maintained above 3, while the proportion of H52 in the brain increased gradually and reached 4.41 at 60 min.
All animal experiments were complied with the ARRIVE guidelines and were carried out in accordance with the U.K. Animals Act, 1986 and associated guidelines. The ICR mice were used in plasma–brain distribution assay of compounds. After tail vein injection of a 1.5 mg/kg dose, the concentrations of the compounds in the brain and plasma were measured after 5 min and 60 min of administration, and the brain/plasma (B/P) ratio was calculated. The samples of plasma and brain tissue were prepared as previously reported. An established LC-MS/MS method was used for determining the concentration of representative compounds in plasma and brain tissue.

[4] = cited from earlier work
A549 cells = experiment: MTT antiproliferation assay, A549 cells; format: cell-based; settings: Homo sapiens, lung cancer cell line, 48 h
Experimental: as §1, §2

MCF7 cells = experiment: MTT antiproliferation assay, MCF7 cells; format: cell-based; settings: Homo sapiens, breast cancer cell line, 48 h
Experimental: as §1, §2

in vitro = settings: dog, MDCK
glioblastoma (U87) cells = experiment: Antiproliferation in combination with TMZ, U87 cells; format: cell-based, human; settings: combination with Temozolomide
Experimental: as §2

PARP-2 = PARP-2 (Homo sapiens, UniProt Q9UGN5); experiment: PARP-2 enzyme inhibition (IC50); format: biochemical
From the text: PARP-2 is the closest homolog of PARP-1, which also resides in the nucleus and functions similarly to PARP-1.

[5] = mouse, brain, intravenous, read-out: Brain
[6] = mouse, brain, intravenous, 60 min after tail vein injection of 1.5 mg/kg, read-out: Brain
[7] = mouse, brain/plasma, intravenous, read-out: B/P ratio
[8] = mouse, brain/plasma, intravenous, 60 min after tail vein injection of 1.5 mg/kg, read-out: B/P ratio
[9] = mouse, plasma, intravenous, read-out: Plasma
[10] = mouse, plasma, intravenous, 60 min after tail vein injection of 1.5 mg/kg, read-out: Plasma

T1 sequence (P09874 whole entry): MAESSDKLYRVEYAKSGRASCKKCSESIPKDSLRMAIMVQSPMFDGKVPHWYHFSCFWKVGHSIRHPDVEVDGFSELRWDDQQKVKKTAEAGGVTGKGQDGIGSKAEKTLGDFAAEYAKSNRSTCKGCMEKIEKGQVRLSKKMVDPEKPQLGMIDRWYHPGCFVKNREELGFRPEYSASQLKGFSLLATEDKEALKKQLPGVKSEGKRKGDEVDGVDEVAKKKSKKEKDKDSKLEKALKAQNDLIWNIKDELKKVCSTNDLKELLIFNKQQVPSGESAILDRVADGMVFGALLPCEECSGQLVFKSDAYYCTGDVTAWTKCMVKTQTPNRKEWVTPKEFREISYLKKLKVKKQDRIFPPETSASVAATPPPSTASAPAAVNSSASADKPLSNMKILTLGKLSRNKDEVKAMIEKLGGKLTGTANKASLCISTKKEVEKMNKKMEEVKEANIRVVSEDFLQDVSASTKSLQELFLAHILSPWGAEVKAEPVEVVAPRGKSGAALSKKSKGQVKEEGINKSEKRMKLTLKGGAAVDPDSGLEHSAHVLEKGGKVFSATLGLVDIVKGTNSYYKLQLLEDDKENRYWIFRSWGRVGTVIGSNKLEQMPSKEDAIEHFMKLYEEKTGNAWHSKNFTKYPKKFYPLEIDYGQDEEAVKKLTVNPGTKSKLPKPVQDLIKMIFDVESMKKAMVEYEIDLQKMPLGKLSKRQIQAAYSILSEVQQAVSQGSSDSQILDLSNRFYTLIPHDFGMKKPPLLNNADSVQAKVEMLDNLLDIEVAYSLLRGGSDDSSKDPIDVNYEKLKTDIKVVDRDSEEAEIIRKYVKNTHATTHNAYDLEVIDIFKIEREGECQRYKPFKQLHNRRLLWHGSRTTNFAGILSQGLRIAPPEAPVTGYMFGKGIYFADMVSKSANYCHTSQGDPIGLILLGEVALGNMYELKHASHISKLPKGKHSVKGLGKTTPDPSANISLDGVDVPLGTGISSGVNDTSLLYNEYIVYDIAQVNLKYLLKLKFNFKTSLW
Sequence of PARP-2 (Q9UGN5 whole entry): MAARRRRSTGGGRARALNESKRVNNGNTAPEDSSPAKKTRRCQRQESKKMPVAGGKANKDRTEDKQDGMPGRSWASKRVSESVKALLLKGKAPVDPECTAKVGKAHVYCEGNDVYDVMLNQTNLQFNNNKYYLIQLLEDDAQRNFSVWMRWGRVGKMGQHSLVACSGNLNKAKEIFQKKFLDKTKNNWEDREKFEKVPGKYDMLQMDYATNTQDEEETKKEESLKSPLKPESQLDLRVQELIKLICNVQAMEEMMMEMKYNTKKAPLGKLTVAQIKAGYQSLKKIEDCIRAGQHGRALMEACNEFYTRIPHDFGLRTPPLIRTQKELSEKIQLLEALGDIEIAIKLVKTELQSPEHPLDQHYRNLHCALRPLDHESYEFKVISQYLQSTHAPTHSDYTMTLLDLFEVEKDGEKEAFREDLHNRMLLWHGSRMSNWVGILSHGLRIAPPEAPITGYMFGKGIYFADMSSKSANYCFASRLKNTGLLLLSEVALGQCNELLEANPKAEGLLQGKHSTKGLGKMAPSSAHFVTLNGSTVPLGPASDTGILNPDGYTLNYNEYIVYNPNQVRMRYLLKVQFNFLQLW

SMILES	inhibition at 0.05 µM (PARP-1)	Capical [1]	IC50 [2]	concentration at 5 min [3, 5]	concentration at 60 min [3, 6]	Kp at 5 min [3, 7]	Kp at 60 min [3, 8]	concentration at 5 min [3, 9]	concentration at 60 min [3, 10]	CNS penetration [4]	IC50 (A549 cells)	IC50 (MCF7 cells)	IC50 (PARP-1)	Papp A→B at 3 h, 10 µM (in vitro)	Cbasolateral [1]	Sensitisation effect in combination with TMZ (glioblastoma (U87) cells)	IC50 (PARP-2)	Kp ([3]; mouse, brain/plasma, intravenous, maintained over 5 and 60 min, 1.5 mg/kg tail vein, read-out: B/P ratio)	B/P ratio ([3]; 60 min after tail vein injection of 1.5 mg/kg, 1.5 mg/kg)
CNCc1ccc(-c2[nH]c3cc(F)cc4c3c2CCNC4=O)cc1 [Rucaparib, reference compound]	98.2 ± 2.7%	3.39 ± 0.82 µg/mL	5.5 ± 2.2 µM	170 ± 48.5 ng/g	13.9 ± 3.78 ng/g	0.14 ± 0.04	0.1 ± 0.06	1180 ± 122 ng/mL	161 ± 60.5 ng/mL	could not pass through the blood-brain barrier; also recorded: not CNS penetrant	34.9 ± 5.2 µM	20.2 ± 3.1 µM	–	–	–	–	–	–	–
COc1ccc(-c2ccc(C3=Nc4ccccc4C(=O)NC3)cc2)cc1 [Compound H42, 2-(4′-Methoxy-[1,1′-biphenyl]-4-yl)-3,4-dihydro-5H-benzo[e][1,4]diazepin-5-one]	> 50%	1.62 ± 0.37 µg/mL	31.4 ± 2.8 µM	1820 ± 324 ng/g	51.8 ± 13.6 ng/g	3.28 ± 0.28	3.58 ± 0.53	555 ± 104 ng/mL	15.1 ± 5.44 ng/mL	–	162 ± 18.4 µM	39.4 ± 4.2 µM	0.0403 µM	16.1 ± 1.08 ×10⁻⁶ cm/s	0.33 ± 0.05 µg/mL	significant sensitisation effects	0.0471 µM	> 3	–
Cn1ncnc1[C@H]1c2n[nH]c(=O)c3cc(F)cc(c23)N[C@@H]1c1ccc(F)cc1 [Talazoparib]	–	–	–	–	–	–	–	–	–	not CNS penetrant	–	–	–	–	–	–	–	–	–
O=C1NCC(c2ccc(-c3ccc(C(F)(F)F)cc3)cc2)Nc2ccccc21 (stereo not drawn) [Compound H52, 2-(4′-(Trifluoromethyl)-[1,1′-biphenyl]-4-yl)-1,2,3,4-tetrahydro-5H-benzo[e][1,4]diazepin-5-one]	> 50%	1.65 ± 0.05 µg/mL	24.6 ± 3.7 µM	1570 ± 264 ng/g	2630 ± 118 ng/g	2.18 ± 0.27	4.41	719 ± 39.9 ng/mL	597 ± 25 ng/mL	–	157 ± 15.2 µM	37.9 ± 3.5 µM	0.0302 µM	19.7 ± 0.92 ×10⁻⁶ cm/s	0.45 ± 0.07 µg/mL	significant sensitisation effects	0.0396 µM	–	4.41 ± 0.07 fold
Cc1n[nH]c(C)c1-c1ccc(C2=Nc3ccccc3C(=O)NC2)cc1 [Compound H34, 2-(4-(3,5-Dimethyl-1H-pyrazol-4-yl)phenyl)-3,4-dihydro-5H-benzo[e][1,4]diazepin-5-one]	> 50%	1.65 ± 0.32 µg/mL	40.3 ± 3.3 µM	301 ± 52.5 ng/g	9.67 ± 8.75 ng/g	0.1 ± 0.01	0.01 ± 0.01	3120 ± 220 ng/mL	1050 ± 70.3 ng/mL	–	121 ± 16.2 µM	44.3 ± 5.2 µM	0.0414 µM	15.7 ± 1.32 ×10⁻⁶ cm/s	0.31 ± 0.08 µg/mL	–	0.0512 µM	–	–
O=C(c1cc(Cc2n[nH]c(=O)c3ccccc23)ccc1F)N1CCN(C(=O)C2CC2)CC1 [Olaparib]	–	–	–	–	–	–	–	–	–	not CNS penetrant	–	–	–	–	–	–	–	–	–
COc1ccc(-c2ccc(C3CNC(=O)c4ccccc4N3)cc2)cc1 (stereo not drawn) [Compound H50, 2-(4′-Methoxy-[1,1′-biphenyl]-4-yl)-1,2,3,4-tetrahydro-5H-benzo[e][1,4]diazepin-5-one]	> 50%	–	130 ± 10.7 µM	–	–	–	–	–	–	–	> 200 µM	125 ± 13.2 µM	0.0463 µM	–	–	–	0.0451 µM	–	–
Nc1ccc(-c2ccc(C3CNC(=O)c4ccccc4N3)cc2)cc1 (stereo not drawn) [Compound H48, 2-(4′-Amino-[1,1′-biphenyl]-4-yl)-1,2,3,4-tetrahydro-5H-benzo[e][1,4]diazepin-5-one]	> 50%	2.43 ± 0.42 µg/mL	30.7 ± 4 µM	1050 ± 153 ng/g	10.1 ± 0.87 ng/g	0.4 ± 0.05	0.07 ± 0.02	2650 ± 264 ng/mL	157 ± 32.3 ng/mL	–	176 ± 23.1 µM	35.7 ± 2.9 µM	0.0378 µM	11.7 ± 0.51 ×10⁻⁶ cm/s	0.23 ± 0.06 µg/mL	–	0.0407 µM	–	–

From PMC8942544, “Design and synthesis of benzodiazepines as brain penetrating PARP-1 inhibitors” (Journal of Enzyme Inhibition and Medicinal Chemistry, 2022)
